The results in this text go back to patent publication US20220304952A1, “COMPOSITION COMPRISING METFORMIN HCI, VITAMIN B12 AND AT LEAST ONE FLOW ADDITIVE” (DSM IP ASSETS B.V., priority 2019, published 2022).

Counter-ions that a name gives are not always drawn.

A short description of series [1]: Powder flowability: mass flow rate through an orifice (Pharmatest PTG-S4). Type of series: physicochemical. As to conditions: orifice inner diameter 15 mm; 100 g powder. As for the experimental part: The powder flowability was determined with a Pharmatest PTG-S4 automated powder characterization instrument (Pharma Test Apparatebau AG, Hainburg, Germany). This system measures the flow behavior of granules and powders in compliance with the current EP <2.9.36/17> and USP <1174> pharmacopoeia as well as with the international ISO 4324 standards.
Mass flow rate (g/min) was determined via the method of flow through an orifice. Flow rate is interpreted as the time needed for a specified amount of powder (100 g) to flow through an orifice with different diameters. A free-flowing powder should be able to flow through the whole set of diameters 5, 7, 9, 10, and 15 mm. The plot of flow rate vs. orifice diameter is referred as flow curve. Three parallel measurements were performed to determine the flow rate.
Flowability of the two mixtures was then tested as described in Example 1.

Series [2] can be described thus: Vitamin B12 content uniformity (RSD from HPLC assays). Type of series: physicochemical. As to conditions: tablets with 549.9 mg calcium phosphate anhydrous and 0.0078 mg vitamin B12. The protocol: “Uniformity of content” ensures that a consistent dose of an active pharmaceutical ingredient (e.g. of vitamin B12) is maintained in each portion of a composition, even if the composition is subdivided into a large number of very small portions. By way of example, when controlling the quality of e.g. capsules or tablets, uniformity of content is determined. To do so, multiple e.g. capsules or tablets are selected at random and a suitable analytical method is applied to assay the individual content of the active pharmaceutical ingredient in each capsule or tablet. The relative standard deviation (RSD) can then be calculated. The lower the RSD, the better the uniformity of content. An RSD of more than […] is clearly unacceptable. The term “uniformity of vitamin B12 content” is used when multiple solid pharmaceutical dosage forms are selected at random and a suitable analytical method is applied to assay the individual content of vitamin B12 in each solid pharmaceutical dosage form.
Tablets were compressed with a Korsch XL 100 rotary tableting machine (Korsch A G, Berlin, Germany) using an oblong punch of 22×9 mm and compression force of 20 kN.
Vitamin B12 content uniformity was then evaluated via the standard deviation RSD (%) calculated from 10 individual assay determinations (HPLC analysis conducted by Eurofins®, Germany).

Take `CN(C)C(=N)N=C(N)N` [metformin HCl]: the “Flow rate, measured with orifice having the indicated inner diameter” value in series [1] is listed as “very low”.

With cyanocobalamin [vitamin B12 crystals], the “vitamin B12 content uniformity rating” value in series [2] is recorded as “extremely poor”.
